Data set [1] has as its system fMLP-stimulated H2O2 production in human PMN. In words: Adenosine inhibition of fMLP-stimulated H2O2 production in human PMN. The format is cell-based. Particulars: for IC50: Homo sapiens.
The subject of data set [2] is human PMN. Particulars: H2O2 production; PMN incubated with mediator for 6 hrs; mean (± S.E.M.).
Data set [3] concerns human PMN. In words: Vitality of human PMN after incubation with inflammatory mediators. The format is cell-based. Particulars: dead cells after 6 hrs incubation with mediator; mean (± S.E.M.).
Setting [4] is: PMN pre-incubated with IFN-γ 6 hrs.
Setting [5] is: PMN pre-incubated with IL-1 6 hrs.
The mark [6] stands for this setting: PMN pre-incubated with IL-8 6 hrs.
[7] abbreviates: PMN pre-incubated with LPS 10 μg/ml 6 hrs.
[8] abbreviates: PMN pre-incubated with TNF-α 6 hrs.

These results are taken from publication PMC3823413 (Journal of Cellular and Molecular Medicine, 2008).

For orientation: IC50 means the concentration that inhibits the measured activity by half. A higher IC50 goes with a need for much substance.

Take `Nc1ncnc2c1ncn2[C@@H]1O[C@H](CO)[C@@H](O)[C@H]1O` [adenosine]: the IC50 in data set [1] (6 h, control (native) PMN, culture medium 6 hrs) turned out to be 75 nM; in data set [1] (setting [4]), 123 nM; in data set [1] (setting [5]) it was 40 nM; in data set [1] (setting [6]), 43 nM; in data set [1] (setting [7]), 332 nM; in data set [1] (setting [8]), 106 nM. The “concentration reaching maximum inhibition” value in data set [1] (LPS-incubated PMN) is 10^−5 M. In data set [1] (LPS-treated (6 hrs) versus native human PMN), the “increase of the IC50 on the H2O2 production” value came out at 4.4 fold. Besides, the “Max. inhibition (6 S.E.M.)” value in data set [1] (setting [4]) is on record as 86.8 (± 4.3) %; in data set [1] (setting [5]), 78.6 (± 2.5) %; in data set [1] (setting [6]) it was 76.3 (± 5.8) %; in data set [1] (setting [7]), 75.2 (± 2.5) %; in data set [1] (setting [8]) it was 84.8 (± 3.6) %; in data set [1] (control (native) PMN, culture medium 6 hrs) it was 78.8 (± 1.5) %. For the same molecule, in data set [1] (untreated neutrophils), the “concentration reaching maximum inhibitory effects” value was 10^−6 M.

Take “IFN-γ: cytokine used for PMN stimulation”: the Spontaneous activity in data set [2] is 36 (± 2.37) MFI.

Take IL-8: cytokine used for PMN stimulation: the Spontaneous activity in data set [2] is recorded as 30 (± 1.76) MFI. In data set [3], the “PI-positive PMN” value is 1.74 (± 0.36) %.

Regarding TNF-α, the Spontaneous activity in data set [2] is recorded as 34 (± 1.51) MFI. For the same molecule, the “PI-positive PMN” value in data set [3] is on record as 2.89 (± 0.39) %.

B1: IFN-γ: cytokine used for PMN stimulation (protein, UniProt P01579 24-161, looked up)
Interferon gamma: QDPYVKEAENLKKYFNAGHSDVADNGTLFLGILKNWKEESDRKIMQSQIVSFYFKLFKNFKDDQSIQKSVETIKEDMNVKFFNSNKKKRDDFEKLTNYSVTDLNVQRKAIHELIQVMAELSPAAKTGKRKRSQMLFRG
As to B1, the “PI-positive PMN” value in data set [3] is reported as 2.76 (± 0.37) %.
